Results taken from article PMC9229843, “Cancer-Related Somatic Mutations in Transmembrane Helices Alter Adenosine A1 Receptor Pharmacology” (Molecules, 2022).
Where a chain is given by its changes, count along the chain named.

Key:
Assay in all cases: yeast liquid growth assay
Format in all cases: cell-based
[1] = molecular target: T1, hA1AR P86L^3.31 (Homo sapiens, UniProt P30542, P86L); details: result in words
T1 construct: expressed in transfected cells; host or cells: S. cerevisiae MMY24
T1 sequence (P30542 1-326 P86L): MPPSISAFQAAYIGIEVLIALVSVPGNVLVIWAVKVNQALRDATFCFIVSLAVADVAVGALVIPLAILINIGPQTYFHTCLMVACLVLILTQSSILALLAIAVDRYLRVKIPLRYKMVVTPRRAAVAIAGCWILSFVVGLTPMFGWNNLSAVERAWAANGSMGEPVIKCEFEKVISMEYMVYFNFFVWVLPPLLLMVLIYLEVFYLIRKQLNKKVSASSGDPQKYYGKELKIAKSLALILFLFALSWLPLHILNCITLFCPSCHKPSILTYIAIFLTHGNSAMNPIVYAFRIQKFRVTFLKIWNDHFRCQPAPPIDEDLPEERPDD
Experimental: (§1) The plasmids, pDT-PGK_hA1AR, containing either wild type or mutated hA1AR were transformed into a MMY24 S. cerevisiae strain following the lithium acetate procedure.
(§2) In order to characterize the mutant hA1ARs, liquid growth assays in 96-well plates were performed to obtain concentration–growth curves as previously described. […] The overnight cultures were then diluted to 40,000 cells/mL (OD600 ≈ 0.02) in a selective medium without uracil, leucine, and histidine (YNB-ULH). For the determination of constitutive activity, 50 μL of yeast cells and 150 μL of YNB-ULH medium containing different concentrations of 3-AT and 0.8 IU/mL ADA were then added to each well. To obtain concentration–growth curves, 2 μL of various concentrations of ligands, 50 μL of yeast cells, and 150 μL of YNB-ULH medium containing 7 mM 3-AT and 0.8 IU/mL ADA were then added to each well. After incubation at 30 °C for 35 h in a Genios plate reader (TECAN, Zürich, Switzerland) with shaking for 1 min at 300 rpm every 10 min, the optical density was measured at a wavelength of 595 nm, which represented the level of yeast cell growth.
(§3) All experimental data were analyzed by GraphPad Prism 7.0 or 8.0 (GraphPad Software Inc., San Diego, CA, USA). Data from yeast liquid growth and [^35S]GTPγS binding assays were analyzed by non-linear regression using “log (agonist) vs. response (three parameters)” or “log (inhibitor) vs. response (three parameters)” to obtain potency (EC50), inhibitory potency (IC50), and efficacy (Emax or Imax) values. The radioligand displacement curves were obtained from a statistically preferred one-site or two-site binding model. pKi values were calculated from pIC50 values using the Cheng–Prusoff equation, where KD values were obtained from the homologous competition assays from this study and calculated by non-linear regression using “one site–homologous” [62].

[2] = molecular target: T2, hA1AR H78L^3.23 (Homo sapiens, UniProt P30542, H78L)
T2 sequence (P30542 1-326 H78L): T1 sequence (P30542 1-326 P86L) with H78L, L86P
Experimental: as §1, §2, §3

[3] = molecular target: T3, hA1AR A20T^1.43 (Homo sapiens, UniProt P30542, A20T); details: ratio over basal activity of wild type hA1AR, 7 mM 3-AT
T3 construct: expressed in transfected cells; host or cells: S. cerevisiae MMY24
T3 sequence (P30542 1-326 A20T): T1 sequence (P30542 1-326 P86L) with A20T, L86P
Experimental: as §1, §2, §3

[4] = molecular target: T4, hA1AR W188C^5.46 (Homo sapiens, UniProt P30542, W188C)
T4 sequence (P30542 1-326 W188C): T1 sequence (P30542 1-326 P86L) with L86P, W188C
Experimental: as §1, §2, §3

[5] = molecular target: T5, hA1AR R122Q^4.40 (Homo sapiens, UniProt P30542, R122Q); details: ratio over basal activity of wild type hA1AR, 7 mM 3-AT
T5 construct: expressed in transfected cells; host or cells: S. cerevisiae MMY24
T5 sequence (P30542 1-326 R122Q): T1 sequence (P30542 1-326 P86L) with L86P, R122Q
Experimental: as §1, §2, §3

[6] = ratio over basal activity of wild type hA1AR, 7 mM 3-AT

## OC[C@H]1O[C@@H](n2cnc3c(NC4CCCC4)ncnc32)[C@H](O)[C@@H]1O [CPA, N^6-cyclopentyladenosine]
[1]
  agonist-induced receptor activation: could not be activated
[2]; [6]
  Emax: 4.15 ± 0.17
[2]; result in words
  agonist-induced receptor activation: further activation could not be obtained
[3]
  Emax: 4.23 ± 0.60
[4]
  decrease in potency versus wild type hA1AR: 10 fold
[4]; [6]
  Emax: 4.35 ± 0.10
[5]
  Emax: 4.67 ± 0.22
